Patent US7348323B2, “Pyrrolo [2,3-c] pyridine derivatives” (Hoffmann-La Roche Inc., priority 2005, dated 2008)

Target: T1, histamine 3 receptor (H3R) (Homo sapiens, UniProt Q9Y5N1)
T1 construct: expressed in transfected cells; host or cells: CHO cells (HR3-CHO)
Assay: Competition binding assay with 3H-(R)α-methylhistamine on membranes of the human HR3-CHO cell line
Settings: membrane of the human HR3-CHO cell line; 3H(R)α-Methylhistamine 1 nM; Ki calculated from IC50 by Cheng-Prusoff equation
Protocol: Binding Assay with ^3H-(R)α-methylhistamine
Saturation binding experiments were performed using HR3-CHO membranes prepared as described in Takahashi, K, Tokita, S., Kotani, H. (2003) J. Pharmacol. Exp. Therapeutics 307, 213-218.
An appropriate amount of membrane (60 to 80 μg protein/well) was incubated with increasing concentrations of ^3H(R)α-Methylhistamine di-hydrochloride (0.10 to 10 nM). Non specific binding was determined using a 200 fold excess of cold (R)α-Methylhistamine dihydrobromide (500 nM final concentration). The incubation was carried out at room temperature (in deep-well plates shaking for three hours). The final volume in each well was 250 μl. The incubation was followed by rapid filtration on GF/B filters (pre-soaked with 100 μl of 0.5% PEI in Tris 50 mM shaking at 200 rpm for two hours). The filtration was made using a cell-harvester and the filter plates were then washed five times with ice cold washing buffer containing 0.5 M NaCl. After harvesting, the plates were dried at 55° C. for 60 min, then we added scintillation fluid (Microscint 40, 40 microl in each well) and the amount of radioactivity on the filter was determined in Packard top-counter after shaking the plates for two hours at 200 rpm at room temperature.
Binding Buffer: 50 mM Tris-HCl pH 7.4 and 5 mM MgCl2x6H2O pH 7.4. Washing Buffer: 50 mM Tris-HCl pH 7.4 and 5 mM MgCl2x6H2O and 0.5 M NaCl pH 7.4.
Indirect measurement of affinity of H3R inverse agonists: twelve increasing concentrations (ranging from 10 μM to 0.3 nM) of the selected compounds were always tested in competition binding experiments using membrane of the human HR3-CHO cell line. An appropriate amount of protein, e.g. approximately 500 cpm binding of RAMH at Kd, were incubated for 1 hour at room temperature in 250 μl final volume in 96-well plates in presence of ^3H(R)α-Methylhistamine (1 nM final concentration=Kd). […]
All compounds were tested at a single concentration in duplicates. […] Ki's were calculated from IC50 based on Cheng-Prusoff equation (Cheng, Y, Prusoff, W H (1973) Biochem Pharmacol 22, 3099-3108).

T1 sequence (Q9Y5N1 whole entry): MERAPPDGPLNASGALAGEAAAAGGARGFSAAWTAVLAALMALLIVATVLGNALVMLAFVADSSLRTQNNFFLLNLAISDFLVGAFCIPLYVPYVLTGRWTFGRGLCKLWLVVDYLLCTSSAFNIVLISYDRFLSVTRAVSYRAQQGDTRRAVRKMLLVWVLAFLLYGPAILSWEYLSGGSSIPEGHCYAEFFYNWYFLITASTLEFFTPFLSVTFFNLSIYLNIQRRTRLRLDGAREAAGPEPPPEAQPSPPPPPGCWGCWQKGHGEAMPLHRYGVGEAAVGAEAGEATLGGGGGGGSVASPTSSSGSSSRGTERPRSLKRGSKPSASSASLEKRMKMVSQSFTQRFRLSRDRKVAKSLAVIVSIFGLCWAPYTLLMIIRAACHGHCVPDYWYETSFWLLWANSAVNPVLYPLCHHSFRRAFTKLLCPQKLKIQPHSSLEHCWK

Compound	Ki
O=C(c1cc2cc(N3CCN(C4CCCC4)CC3)ncc2[nH]1)N1CCCC1 [Example 1, [5-(4-Cyclopentyl-piperazin-1-yl)-1H-pyrrolo[2,3-c]pyridin-2-yl]-pyrrolidin-1-yl-methanone]	33 nM
CCCNC(=O)c1cc2cc(N3CCN(C4CCCC4)CC3)ncc2[nH]1 [Example 13, 5-(4-cyclopentyl-piperazin-1-yl)-1H-pyrrolo[2,3-c]pyridine-2-carboxylic acid propylamide]	27.4 nM
CC(C)N1CCN(c2cc3cc(C(=O)N4CCC(F)(F)CC4)[nH]c3cn2)CC1 [Example 27, (4,4-difluoro-piperidin-1-yl)-[5-(4-isopropyl-piperazin-1-yl)-1H-pyrrolo[2,3-c]pyridin-2-yl]-methanone]	63.1 nM
